Measured values reported in patent US20240150339A1, “Compounds and Their Use as PDE4 Activators” (Mironid Limited, priority 2021, published 2024).
Structures can show the parent of a compound that is named as a salt.

Experiments:
m-IMCD3 cells = assay: Inhibition of PGE2-stimulated in vitro cyst formation in 3D culture of m-IMCD3 cells; type: cell-based, mouse; settings: Mus musculus, mIMCD3, 144 h; 10 μM test compound; mean cyst area (%) compared to 100% for (DMSO + PGE2) and 0% for DMSO control; 100 nM PGE2; 6 days; read-out: % Cyst area after incubation with 10 μM test compound
Procedure, shortened: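 Mouse m-IMCD3 cells grown in 3D collagen I/Matrigel gels. From 18-24 h after plating, compound (0.1% DMSO) plus 100 nM PGE2 were added and replenished at 2-3 days. After 6 days, imaging gave mean cyst area, scaled to 100% for DMSO+PGE2 and 0% for DMSO alone.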

MDCK cells = assay: Inhibition of PGE2-stimulated in vitro cyst formation in 3D culture of MDCK cells; type: cell-based; settings: total cyst area (%) compared to 100% for (DMSO + PGE2) and 0% for DMSO control, 300 nM PGE2
Method: HEK 293 and MDCK cells (Public Health England, Cell Culture Collections) were maintained in Dulbecco's Modified Eagle's Medium (DMEM) supplemented with 10% (v/v) fetal bovine serum (FBS) (Seralab), 2 mM L-glutamine and 100 U/ml penicillin streptomycin cocktail (ThermoFisher); termed complete media. Clonal HEK 293 cell lines were maintained in complete media supplemented with 0.6 mg/mL G418 (Enzo Life Sciences). Mouse inner medullary collecting duct (m-IMCD3) cells [American Type Culture Collection (ATCC)] were maintained in media consisting of DMEM/Hams F-12 50/50 Mix (DMEM F12; Corning) supplemented with penicillin streptomycin cocktail (100 U/ml) and FBS (10% v/v) (DMEM F12-10% FBS).
In this study, the well-established three-dimensional (3D) MDCK cell model is used to investigate the effects of PDE4 long form activators on the formation of kidney cysts and evaluate their potential in the treatment of polycystic kidney diseases. 3D cysts are generated based on the method of Mao et al. (Mao, Z., Streets, A. J., Ong, A. C. M. Am. J. Physiol. Renal Physiol. 300 (6): F1375-F1384, 2011), with some modifications.
The assay is conducted in the wells of a 96-well plate culture dish using a total volume of 130 μl of collagen suspension in growth media for each matrix plug per individual well. Rat Collagen I (Fisher Scientific) is prepared on ice by neutralising with 1M NaOH and diluting with a 2×volume of DMEM-2% FBS. 30 μl of collagen/Media mix is added into the well of a 96 well plate and the collagen is set to a gel by incubating at 37° C. for at least 15 minutes. A second layer of 100 μl collagen/Matrigel suspension containing MDCK cells (1.0×10^4 MDCK cells per well) is then layered over the first layer and the collagen/cell mix again set to a gel by incubating at 37° C. 100 μl DMEM growth media is added and cells are incubated at 37° C. for 24 hours. 24 hours after cell seeding, DMEM-2% FBS is added along with the test compound indicated in the presence of 300 nM prostaglandin E2 (PGE2) (Sigma Aldrich) in quadruplicate wells per condition. Media, together with the test compound and PGE2 are replenished every 3 days for 10-15 days.
After 10-15 days of culture z stack images of the wells are captured using the Nikon Eclipse Ti2-E microscope. Nikon General Analysis software is used to measure the following parameters in each well: the mean cyst area, the number of cysts, and the total cyst area.
PDE4 long form activators inhibited in vitro cyst formation in MDCK cells. Data are shown in Table 6 as total cyst area (%), compared to 100% for (DMSO+PGE2) and 0% for DMSO control.

m-IMCD3 cell culture = assay: Reduction of cAMP levels in m-IMCD3 cell culture media (cAMP ELISA); type: cell-based, mouse; settings: compared to 100% for (DMSO + PGE2)
Source text: Experiment 4a: Reduction of cAMP Levels in m-IMCD3 Cell Culture Treated with PDE4 Long Form Activators Activation of intracellular PDE4 long forms leads to a reduction of both intracellular cAMP and externalised cAMP (Omar et al., PNAS 116: 13320-13329, 2019). This reduction may be measured in the cell culture media supernatant of 3D cystic cell cultures, such as in the m-IMCD3 cell cyst suppression assay described in Experiment 4.
Following the completion of the m-IMCD3 cell cyst suppression assay, the cAMP levels in the assay media from individual assay wells was measured using a cAMP ELISA kit (Enzo Life Sciences) according to the manufacturer's instructions.
Treatment with PDE4 long form activators reduced cAMP levels in PGE2-stimulated m-IMCD3 cell culture.

PDE4D5 = target: T1, PDE4D5 (Homo sapiens, UniProt Q08499); assay: PDE assay, activation of full-length human PDE4D5 long form ([3H]cAMP radio-assay); type: biochemical; settings: 30 μM test compound; mean % increase in counts over basal activity
T1 construct: Using Full-Length Human PDE4 Isoforms: Long Forms PDE4D5, PDE4C3, PDE4B1 and Short Form PDE4B2; made in house; cytosol fraction of the cell lysate, not purified
Procedure, shortened: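 Cytosol (100,000 g) from HEK293 cells overexpressing full-length human PDE4 was preincubated with compound for 15 min at room temperature in 10 mM Tris/5 mM MgCl2. Reaction ran with 1 μM [3H]cAMP for 10 min at 30° C, then snake venom conversion, Dowex separation and scintillation counting; activity reported as % increase.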

PDE4B2 = target: T2, PDE4B2 (Homo sapiens, UniProt Q07343); assay: PDE assay, activity of full-length human PDE4B2 short form ([3H]cAMP radio-assay); type: biochemical; settings: 30 μM test compound; mean % increase in counts over basal activity
T2 construct: the full length human PDE4B2 short isoform; made in house; cytosol fraction of the lysate by analogy to PDE4D5
Source text: Experiment 1: Measurement of Modulation of Enzyme Activity by PDE4 Long Form Activators of the Present Invention Using Full-Length Human PDE4 Isoforms: Long Forms PDE4D5, PDE4C3, PDE4B1 and Short Form PDE4B2
(Marchmont, R. J. and Houslay, M. D. Biochem. J. 187: 381-92, 1980)
For transient transfection of exogenous PDE4 long isoforms, HEK 293 cells were transfected with pcDNA3.1 or pDEST™ PDE4 expression vectors using Lipofectamine LTX/Plus reagent (Invitrogen) as outlined by the manufacturer.
Where stable cell lines were generated the clonal isolates were expanded to obtain cell lines that stably expressed the full-length human PDE4 long isoforms and the full length human PDE4B2 short isoform. These were called the HEK-PDE4D5, HEK-PDE4B1 and HEK-PDE4B2 cell lines, respectively.
HEK-PDE4D5 cells were seeded out in 100 mm plates and incubated at 37° C. in an atmosphere of 5% CO2, 95% air. Cell lysates were prepared using KHEM buffer [50 mM KCl, 10 mM EGTA, 50 mM HEPES (pH 7.2), 1.92 mM MgCl2].
To prepare the cell lysates, the 100 mm plates containing the cells were placed on ice and washed with ice-cold PBS (phosphate buffered saline, pH 7.4). KHEM buffer (500 μl) was added to the cells. Cells were then scraped off the plate and triturated using a needle (BD Microlance™ 0.8, 40 mm). The lysed cells were then centrifuged at 2000 rpm for 10 minutes to remove cell debris and the supernatant (cell lysate containing recombinant PDE4D5) was transferred to a fresh tube and kept on ice.
The cell lysate containing recombinant PDE4D5 was transferred into a centrifuge tube and placed into an ultracentrifuge (BECKMAN COULTER) and spun at high speed (100,000 g) for 30 minutes at 4° C. The cytosol fraction was then collected and its protein amount determined using a BCA protein assay.
PDE assays were performed in thin walled V-bottomed 96-well plates. The assays were performed at a final concentration of 10 mM Tris/5 mM MgCl2 μlus PDE4D5 cell lysate cytosol fraction, containing over-expressed PDE4D5, with and without test compound. The lysate/compound mix were incubated together for 15 min at room temperature on an orbital shaker prior to addition of [^3H] cAMP (final concentration 1 μM [^3H] cAMP; Perkin Elmer) to a final volume of 50 μl per reaction. The reactions were then incubated for 10 minutes at 30° C., terminated by heating for 2 min at 95° C. and allowed to cool. Snake venom (12.5 μl of 1 mg/ml; Crotalus atrox, Sigma) was then added and the plates were agitated and incubated for a further 15 minutes at 30° C. Dowex ion exchange resin (Sigma, chloride form, 200-400 mesh; 200 μl; prepared as a 1:1 Dowex: water stock, thoroughly re-suspended and diluted 2:1 with ethanol) was then added to each well and the plates incubated for 15 min at room temperature on an orbital shaker ensuring sufficient agitation for resin suspension (550 RPM). The reaction mixture was then transferred to a 96 well filter plate (Millipore; […] pore size) and filtered into a receiving 96-well plate to remove the dowex suspension. 30 μL of the filtered solution was then transferred to the wells of an Opti-plate (Perkin Elmer) 96 well assay plate and 120 μl of Microscint 40 scintillation fluid was added. The plate was then placed on an orbital shaker for 10 min at high speed (900 RPM) to mix the sample with scintillation fluid prior to quantitation using a plate based scintillation counter (Top-Count).
The % increase in counts in the presence of test compound at a particular concentration indicates the % increase in enzyme activity at that concentration.

T1 sequence (Q08499 1-745 isoform Q08499-6): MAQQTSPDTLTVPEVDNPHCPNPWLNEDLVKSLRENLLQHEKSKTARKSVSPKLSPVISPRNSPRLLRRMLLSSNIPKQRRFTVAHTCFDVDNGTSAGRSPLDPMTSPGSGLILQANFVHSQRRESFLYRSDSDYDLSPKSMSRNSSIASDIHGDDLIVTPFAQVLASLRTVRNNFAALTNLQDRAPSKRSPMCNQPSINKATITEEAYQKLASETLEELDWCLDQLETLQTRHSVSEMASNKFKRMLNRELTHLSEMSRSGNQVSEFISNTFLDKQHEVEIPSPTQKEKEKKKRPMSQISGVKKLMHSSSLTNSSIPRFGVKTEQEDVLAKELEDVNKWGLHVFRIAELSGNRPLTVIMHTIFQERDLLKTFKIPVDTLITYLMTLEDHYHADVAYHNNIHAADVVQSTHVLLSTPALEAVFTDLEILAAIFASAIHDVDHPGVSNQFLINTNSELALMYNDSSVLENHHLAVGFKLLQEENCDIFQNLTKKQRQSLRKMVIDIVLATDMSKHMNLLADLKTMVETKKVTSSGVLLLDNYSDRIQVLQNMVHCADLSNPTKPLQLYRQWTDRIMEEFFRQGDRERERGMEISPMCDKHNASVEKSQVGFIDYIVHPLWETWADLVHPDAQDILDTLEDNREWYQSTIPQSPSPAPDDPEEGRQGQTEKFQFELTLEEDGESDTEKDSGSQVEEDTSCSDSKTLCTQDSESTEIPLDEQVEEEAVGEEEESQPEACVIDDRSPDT
T2 sequence (Q07343 1-564 isoform Q07343-2): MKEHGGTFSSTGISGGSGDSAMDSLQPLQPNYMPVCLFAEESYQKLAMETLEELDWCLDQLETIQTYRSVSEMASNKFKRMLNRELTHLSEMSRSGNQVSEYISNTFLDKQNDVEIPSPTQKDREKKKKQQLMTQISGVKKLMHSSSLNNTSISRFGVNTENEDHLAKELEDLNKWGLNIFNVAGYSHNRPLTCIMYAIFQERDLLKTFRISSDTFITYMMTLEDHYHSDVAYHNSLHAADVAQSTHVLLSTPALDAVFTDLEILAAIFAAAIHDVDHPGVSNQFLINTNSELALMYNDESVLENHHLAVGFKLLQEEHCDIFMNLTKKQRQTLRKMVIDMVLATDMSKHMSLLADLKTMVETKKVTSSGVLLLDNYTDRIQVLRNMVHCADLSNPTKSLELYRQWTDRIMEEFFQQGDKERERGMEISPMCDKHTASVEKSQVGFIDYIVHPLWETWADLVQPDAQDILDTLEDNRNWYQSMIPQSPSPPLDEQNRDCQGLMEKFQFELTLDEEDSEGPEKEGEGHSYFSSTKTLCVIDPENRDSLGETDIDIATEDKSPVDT

| SMILES | activity at 10 µM (m-IMCD3 cells) [%] | % Cyst area after incubation with 1 μM test compound (MDCK cells) [%] | cAMP level (% of PGE2-stimulated) after incubation with 10 μM test compound (m-IMCD3 cell culture) [%] | other results |
| --- | --- | --- | --- | --- |
| O=C(N[C@H]1CCOc2ccccc21)c1ccc2nc(N3CCNCC3)sc2c1 [Example 83, (S)-N-(chroman-4-yl)-2-(piperazin-1-yl)benzo[d]thiazole-6-carboxamide hydrochloride] | 6 | −1 |  |  |
| CN1CCC(c2nc3ccc(C(=O)NC4CCCC4)cc3s2)CC1 [Example 151, N-cyclopentyl-2-(1-methylpiperidin-4-yl)benzo[d]thiazole-6-carboxamide] | 10 |  | 54 |  |
| O=C(NC1CCC(F)(F)CC1)c1ccc2nc(C3CCN(CCO)CC3)sc2c1 [Example 174, N-(4,4-difluorocyclohexyl)-2-(1-(2-hydroxyethyl)piperidin-4-yl)benzo[d]thiazole-6-carboxamide] |  |  | 27 |  |
| COc1c(C(=O)NC2CCCC2)ccc2nc(N3C4CCC3CNC4)sc12 [Example 236, 2-(3,8-diazabicyclo[3.2.1]octan-8-yl)-N-cyclopentyl-7-methoxybenzo[d]thiazole-6-carboxamide] |  | 20 |  |  |
| CC(C)NC(=O)c1cc(C#N)c2nc(N3C4CCC3CNC4)sc2c1 [Example 238, 2-(3,8-diazabicyclo[3.2.1]octan-8-yl)-4-cyano-N-isopropylbenzo[d]thiazole-6-carboxamide] |  | 24 |  |  |
| O=C(NC1CCC(F)(F)CC1)c1ccc2nc(N3C4CCC3CNC4)sc2c1 [Example 240, 2-(3,8-diazabicyclo[3.2.1]octan-8-yl)-N-(4,4-difluorocyclohexyl)-benzo[d]thiazole-6-carboxamide] | 5 |  | 41 |  |
| O=C(NC1CCC(F)(F)CC1)c1ccc2nc(N3CC4CCC(C3)N4)sc2c1 [Example 245, 2-(3,8-diazabicyclo[3.2.1]octan-3-yl)-N-(4,4-difluorocyclohexyl)-benzo[d]thiazole-6-carboxamide] |  | 4 |  |  |
| O=C(NC1CCC(F)(F)CC1)c1ccc2nc(N3CC4CCC(C3)N4CCO)sc2c1 [Example 247, N-(4,4-difluorocyclohexyl)-2-(8-(2-hydroxyethyl)-3,8-diazabicyclo[3.2.1]octan-3-yl)benzo[d]thiazole-6-carboxamide] |  | 1 |  |  |
| CN1CCN(c2nc3ccc(C(=O)NC4CCCC4)cc3s2)CC12CC2 [Example 260, N-cyclopentyl-2-(4-methyl-4,7-diazaspiro[2.5]octan-7-yl)benzo[d]thiazole-6-carboxamide] |  | 11 |  |  |
| CCN1CC2CCC(C1)N2c1nc2ccc(S(=O)(=O)NC3CCC(F)(F)CC3)cc2s1 [Example 290, N-(4,4-difluorocyclohexyl)-2-(3-ethyl-3,8-diazabicyclo[3.2.1]octan-8-yl)benzo[d]thiazole-6-sulfonamide] | 16 |  |  | activation at 30 µM (PDE4D5): 47%; % increase in PDE4B2 activity at 30 μM* (PDE4B2): 11% |
